Test [1] relates to C. lusitaniae ATCC® 34449. In words: Agar dilution method: MIC and synergy (FIC). As to conditions: for MIC: Clavispora lusitaniae, ATCC34449, active ingredient alone, agar dilution, Sabouraud agar, 35° C., 48 h, complete inhibition of growth. The test is classed as cell-based, Candida lusitaniae. The procedure: Candida strains stored at -80° C. were thawed and streaked on SDA plate and then a second subculture was performed. Then, Candida strains suspensions were prepared as follows. 10 ml of saline were placed in a 50 ml falcon tube with 5 g of glass beads. Loopful of the cells of the colonies of the second subculture were transferred into the saline and suspended by rubbing the loop against the wet wall of the tube to dislodge the cells. The tube was then shacked for 3 minutes using a mechanical shaker. The number of cells in the suspension was adjusted from 1.5×10^6 to 5.0×10^6 colony forming units (CFU)/ml using saline according to Mc Farland standard No. 0.5 standard and reading the optical density at 550 nm. For counting, serially 1:10 dilutions were prepared using saline, to obtain 10^-4 and 10^-5 dilutions of the suspension. A sample of 100 μl of each dilution was spread plate and incubated at 37° C. for 48 h. […] The methodology was similar to that disclosed by R. Moody et al., “In Vitro Activities of Miconazole, Miconazole Nitrate, and Ketoconazole Alone and Combined with Rifampin against Candida spp. and Torulopsis glabrata Recovered from Cancer Patients.”, Antimicrobial Agents and Chemotherapy: 1980, 17, 871-875. Standard Petri dishes (92 mm diameter×16 mm height) were used. After the agar was poured, plates were allowed to cool and then immediately used. […] All the Petri dishes were incubated at 35° C. for 48 h. (B) For synergy studies, the surface of each Petri dish prepared as described in paragraph 1.2.1(B) was inoculated with four spots (20 μl inoculum volume) of the Candida strains suspensions prepared as described in paragraph 1.1, and incubated at 35° C. for 48 hours. The lowest concentration of drug that produced a complete inhibition of growth for a certain Candida strain was regarded as the minimal inhibitory concentration (MIC) for said strain. […] The synergistic effect of the combinations comprising benzydamine and econazole nitrate was evaluated by calculating the fractional inhibitory concentration (FIC), in accordance with […]. et al. in Antimicrobial Agents and Chemotherapy, February 2010, p. 602-609. […] FIC[combination b+e]=[…]] is the fractional inhibitory concentration of benzydamine with respect to a specific Candida strain, calculated as the ratio between the MIC of benzydamine in the presence of a sub-MIC amount of econazole (MIC(b+e)) and the MIC of benzydamine alone (MIC(b)), as follows: FIC[e] is the fractional inhibitory concentration of econazole with respect to a specific Candida strain, calculated as the ratio between the MIC of econazole in the presence of a sub-MIC amount of benzydamine (MIC(e+b)) and the MIC of econazole alone (MIC(e)), as follows: […]
(In general: In agar dilution the substance is mixed into plates at graded concentrations.)

Test [2] deals with C. albicans ATCC® MYA-427. Description: Broth dilution method: MIC and synergy. As to conditions: for MIC: Candida albicans, active ingredient alone, RPMI-1640, 35° C., 48 h; for MIC in combination with benzydamine: in combination with benzydamine 0.125 mg/ml. The test is classed as cell-based, Candida albicans. As for the experimental part:
(§1) Candida strains stored at −80° C. were thawed and streaked on SDA plate and then a second subculture was performed. Then, Candida strains suspensions were prepared as follows.
(§2) 10 ml of saline were placed in a 50 ml falcon tube with 5 g of glass beads. Loopful of the cells of the colonies of the second subculture were transferred into the saline and suspended by rubbing the loop against the wet wall of the tube to dislodge the cells. The tube was then shacked for 3 minutes using a mechanical shaker.
(§3) The number of cells in the suspension was adjusted from 1.5×10^6 to 5.0×10^6 colony forming units (CFU)/ml using saline according to Mc Farland standard No. 0.5 standard and reading the optical density at 550 nm.
(§4) For counting, serially 1:10 dilutions were prepared using saline, to obtain 10^−4 and 10^−5 dilutions of the suspension. A sample of 100 μl of each dilution was spread plate and incubated at 37° C. for 48 h.
(§5) The methodology used for the broth dilution method was similar to that disclosed in “EUCAST Definitive Document EDef 7.1: method for the determination of broth dilution MICs of antifungal agents for fermentative yeasts” (Clin Microbiol Infect 2008; 14: 398-408).
(§6) Then, serial 1:2 dilutions were prepared in DMSO, to concentrations from 10.0 mg/ml to 0.078 mg/ml. These solutions were further diluted 1:100 in RPMI-1640 (GiBCO® by Life Technologies) containing 2% glucose, 3-(N-morpholino) propanesulfonic acid (MOPS, by SIGMA) without NaHCO3, to final concentration from 100 μg/ml to 0.78 μg/ml.
(§7) Benzydamine was dissolved in water to a concentration of 25 mg/ml. Then, serial 1:2 dilutions were prepared in water, to concentrations from 25 mg/ml to 3.125 mg/ml. 1 ml of each solution was added to 24 ml (1:25 dilution) of RPMI-1640 (GiBCO® by Life Technologies) containing 2% glucose, 3-(N-morpholino) propanesulfonic acid (MOPS, by SIGMA) without NaHCO3, to final concentration from 1 mg/ml to 0.125 mg/ml.
(§8) (B) For synergy studies, further solutions of econazole, miconazole, clotrimazole and fluconazole nitrate having concentrations from 100 μg/ml to 0.049 μg/ml were prepared in RPMI-1640 as disclosed in paragraph 1.3.1(A).
(§9) Also, further solutions of benzydamine having concentrations from 1 mg/ml to 0.25 mg/ml were prepared in RPMI-1640 as disclosed in paragraph 1.3.1(A). Moreover, the solution of benzydamine with a concentration of 1 mg/ml was further diluted 1:1.43 with RPMI-1640 to concentration of 0.7 mg/ml.
(§10) Microdilution plates containing wells with a nominal capacity of about 300 μL/well were used.
(§11) The Candida strains suspensions prepared as described in paragraph 1.1 were grown on Sabouraud's agar medium SDA (Oxoid). Colonies were diluted in phosphate-buffered saline (PBS) and suspensions were adjusted to approximately 1-5×10^5 CFU/ml using Mc Farland 0.5 standard and reading the optical density at 550 nm.
(§12) (A) For the calculation of the MIC, microdilution plates containing in each well 100 μl of each solution of the active ingredients obtained as described in paragraph 1.3.1(A) were prepared. The wells were then inoculated with 100 μl of Candida strains suspensions obtained as disclosed above containing 1-5×10^5 CFU/ml.
(§13) In each well, the final inoculum density and the final concentration of the active ingredients was half of that used (i.e. the final inoculum density was 0.5-2.5×10^5 CFU/ml, the concentration of econazole and miconazole was from 50 μg/ml to 0.39 μg/ml, the concentration of clotrimazole was from 6.25 μg/ml to 0.098 μg/ml, the concentration of fluconazole was from 50 μg/ml to 3.125 μg/ml and the concentration of benzydamine was from 0.5 mg/ml to 0.0625 mg/ml).
(§14) The microdilution plates were incubated for 48 hours at 35° C.
(§15) (B) For synergy studies, microdilution plates containing in each well 50 μl of each solution of econazole and miconazole and 50 μl of each solution of benzydamine, obtained as disclosed in paragraph 1.3.1(B), were prepared. Then, the wells were inoculated with 100 μl of the 1-5×10^5 CFU/ml Candida suspensions. […]

In test [3] the test system is C. albicans ATCC® MYA-574 fluconazole resistant. Description: Broth dilution method: MIC and synergy. The class given is cell-based, Candida albicans. As to conditions: for MIC: Candida albicans, active ingredient alone, RPMI-1640, 35° C., 48 h. As for the experimental part: as §1, §2, §3, §4, §5, §6, §7, §8, §9, §10, §11, §12, §13, §14, §15
For orientation: Broth dilution looks for growth in wells or tubes with falling amounts of substance.

A further test relates to C. tropicalis ATCC® 750. In words: Broth dilution method: MIC and synergy (FIC). The test is classed as cell-based, Candida tropicalis. As to conditions: for MIC: RPMI-1640, 35° C., 48 h; for MIC in combination with benzydamine: in combination with benzydamine 0.175 mg/ml. The procedure:
as §1, §2, §3, §4, §5, §6
(§16) Then, serial 1:2 dilutions were prepared in DMSO, to concentrations from 1.250 mg/ml to 0.0196 mg/ml. These solutions were further diluted 1:100 in RPMI-1640 (GiBCO® by Life Technologies) containing 2% glucose, 3-(N-morpholino) propanesulfonic acid (MOPS, by SIGMA) without NaHCO3, to final concentration from 12.50 μg/ml to 0.196 μg/ml.
(§17) Then, serial 1:2 dilutions were prepared in DMSO, to concentrations from 5.0 mg/ml to 0.3125 mg/ml. These solutions were further diluted 1:100 in RPMI-1640 (GiBCO® by Life Technologies) containing 2% glucose, 3-(N-morpholino) propanesulfonic acid (MOPS, by SIGMA) without NaHCO3, to final concentration from 50 μg/ml to 3.125 μg/ml.
as §7, §8, §9, §10, §11, §12

The subject of a further test is C. albicans ATCC® 10231. In words: Broth dilution method: MIC and synergy. The settings on record: for MIC: RPMI-1640, 35° C., 48 h; for MIC in combination with benzydamine: in combination with benzydamine 0.125 mg/ml. The class given is cell-based, Candida albicans. As for the experimental part:
as §1, §2, §3, §4, §5, §6, §16, §17, §7
As positive control Amphotericin B from a stock solution of 1600 μg/ml was diluted in DMSO to solutions having concentrations from 200 μg/ml to 50 μg/ml. These solutions were diluted 1:100 in RPMI-1640 (GiBCO®, by Life Technology) containing 2% glucose, 3-(N-morpholino) propanesulfonic acid (MOPS, by SIGMA) without NaHCO3, to concentrations from 2 μg/ml to 0.5 μg/ml.
as §8, §9, §10, §11

The mark [4] stands for this setting: Candida tropicalis, ATCC750, active ingredient alone, read-out: MIC.
Setting [5] is: Candida albicans, ATCC10231, active ingredient alone, read-out: MIC.

Read-outs that look alike come from different tables or passages of the source.

For the compound `CN(C)CCCOc1nn(Cc2ccccc2)c2ccccc12` [Benzydamine], the minimal inhibitory concentration (MIC) (in test [1]; in test [2]; in test [3]; in the test on C. tropicalis ATCC® 750 (setting [4]); in the test with C. albicans ATCC® 10231 (setting [5])) was 500 µg/mL throughout. Further, the “FIC[b] (fractional inhibitory concentration of benzydamine)” value in test [1] (MIC of benzydamine in presence of sub-MIC econazole / MIC of benzydamine alone) was found to be 0.25. The “MIC of benzydamine in combination with econazole” value in test [3] (in combination with econazole) came out at 125 µg/mL. Further, the “MIC of benzydamine in combination with miconazole” value in test [3] (in combination with miconazole) amounted to 62.5 µg/mL.
As for `C[C@@H]1[C@H](O)[C@@H](C)/C=C/C=C/C=C/C=C/C=C/C=C/C=C/[C@H](O[C@@H]2O[C@H](C)[C@@H](O)[C@H](N)[C@@H]2O)C[C@@H]2O[C@](O)(C[C@@H](O)C[C@@H](O)[C@H](O)CC[C@@H](O)C[C@@H](O)CC(=O)O[C@H]1C)C[C@H](O)[C@H]2C(=O)O` [Amphotericin B], the MIC (usually the smallest concentration in the dilution series that meets the test's criterion for growth inhibition) in the test with C. albicans ATCC® 10231 (active ingredient alone) is 0.5 µg/mL.
Take `Clc1ccc(COC(Cn2ccnc2)c2ccc(Cl)cc2Cl)c(Cl)c1` (stereo not drawn) [Miconazole nitrate]: the MIC in test [2] stood at 25 µg/mL; in test [3], 50 µg/mL; with C. tropicalis ATCC® 750 (setting [4]), 6.25 µg/mL; with C. albicans ATCC® 10231 (setting [5]) it was 6.25 µg/mL. Besides, the “MIC in combination with benzydamine” value in test [2] amounted to 0.78 µg/mL; in test [3], 12.5 µg/mL; in the test on C. tropicalis ATCC® 750, 0.78 µg/mL; in the test on C. albicans ATCC® 10231, 1.56 µg/mL.
On to Clotrimazole nitrate, for which the MIC in the test on C. tropicalis ATCC® 750 (active ingredient alone) turned out to be 6.25 µg/mL; in the test with C. albicans ATCC® 10231 (active ingredient alone), 0.025 µg/mL. Further, in the test with C. tropicalis ATCC® 750, the “MIC in combination with benzydamine” value was found to be 0.098 µg/mL.
For the compound Fluconazole nitrate, the MIC with C. tropicalis ATCC® 750 (active ingredient alone) worked out at 50 µg/mL; with C. albicans ATCC® 10231 (active ingredient alone), 3.125 µg/mL. The “MIC in combination with benzydamine” value in the test on C. tropicalis ATCC® 750 stood at 6.25 µg/mL.
As for `Clc1ccc(COC(Cn2ccnc2)c2ccc(Cl)cc2Cl)cc1` (stereo not drawn) [Econazole nitrate], the MIC in test [1] is 1.56 µg/mL; in test [2], 25 µg/mL; in test [3], 25 µg/mL; in the test on C. tropicalis ATCC® 750 (setting [4]), 12.5 µg/mL; with C. albicans ATCC® 10231 (setting [5]), 25 µg/mL. In addition, the “FIC[e] (fractional inhibitory concentration of econazole)” value in test [1] (MIC of econazole in presence of sub-MIC benzydamine / MIC of econazole alone) came out at 0.0628. Also, the “MIC in combination with benzydamine” value in test [2] stood at 1.56 µg/mL; in test [3], 12.5 µg/mL; with C. tropicalis ATCC® 750, 1.56 µg/mL; with C. albicans ATCC® 10231, 3.125 µg/mL.
